Results published in publication PMC1253704, “Nitromusk and Polycyclic Musk Compounds as Long-Term Inhibitors of Cellular Xenobiotic Defense Systems Mediated by Multidrug Transporters” (Environmental Health Perspectives, 2004).
Like-named read-outs stand apart in the source and are kept apart here. Marks after values point to notes of the source that are not given here.

Tests used:
[1] = target: T1, efflux transporters in mussel gills (MXR transporters) (Mytilus californianus, UniProt B2WTH9); experiment: Competitive substrate/transporter inhibition assay: rhodamine B accumulation in mussel gill tissue disks; type: cell-based; settings: concentration causing 10% of maximal inhibition; mean ± SD; probit regression; 1 μM rhodamine B, 90 min, 15°C
T1 sequence (B2WTH9 1-1311): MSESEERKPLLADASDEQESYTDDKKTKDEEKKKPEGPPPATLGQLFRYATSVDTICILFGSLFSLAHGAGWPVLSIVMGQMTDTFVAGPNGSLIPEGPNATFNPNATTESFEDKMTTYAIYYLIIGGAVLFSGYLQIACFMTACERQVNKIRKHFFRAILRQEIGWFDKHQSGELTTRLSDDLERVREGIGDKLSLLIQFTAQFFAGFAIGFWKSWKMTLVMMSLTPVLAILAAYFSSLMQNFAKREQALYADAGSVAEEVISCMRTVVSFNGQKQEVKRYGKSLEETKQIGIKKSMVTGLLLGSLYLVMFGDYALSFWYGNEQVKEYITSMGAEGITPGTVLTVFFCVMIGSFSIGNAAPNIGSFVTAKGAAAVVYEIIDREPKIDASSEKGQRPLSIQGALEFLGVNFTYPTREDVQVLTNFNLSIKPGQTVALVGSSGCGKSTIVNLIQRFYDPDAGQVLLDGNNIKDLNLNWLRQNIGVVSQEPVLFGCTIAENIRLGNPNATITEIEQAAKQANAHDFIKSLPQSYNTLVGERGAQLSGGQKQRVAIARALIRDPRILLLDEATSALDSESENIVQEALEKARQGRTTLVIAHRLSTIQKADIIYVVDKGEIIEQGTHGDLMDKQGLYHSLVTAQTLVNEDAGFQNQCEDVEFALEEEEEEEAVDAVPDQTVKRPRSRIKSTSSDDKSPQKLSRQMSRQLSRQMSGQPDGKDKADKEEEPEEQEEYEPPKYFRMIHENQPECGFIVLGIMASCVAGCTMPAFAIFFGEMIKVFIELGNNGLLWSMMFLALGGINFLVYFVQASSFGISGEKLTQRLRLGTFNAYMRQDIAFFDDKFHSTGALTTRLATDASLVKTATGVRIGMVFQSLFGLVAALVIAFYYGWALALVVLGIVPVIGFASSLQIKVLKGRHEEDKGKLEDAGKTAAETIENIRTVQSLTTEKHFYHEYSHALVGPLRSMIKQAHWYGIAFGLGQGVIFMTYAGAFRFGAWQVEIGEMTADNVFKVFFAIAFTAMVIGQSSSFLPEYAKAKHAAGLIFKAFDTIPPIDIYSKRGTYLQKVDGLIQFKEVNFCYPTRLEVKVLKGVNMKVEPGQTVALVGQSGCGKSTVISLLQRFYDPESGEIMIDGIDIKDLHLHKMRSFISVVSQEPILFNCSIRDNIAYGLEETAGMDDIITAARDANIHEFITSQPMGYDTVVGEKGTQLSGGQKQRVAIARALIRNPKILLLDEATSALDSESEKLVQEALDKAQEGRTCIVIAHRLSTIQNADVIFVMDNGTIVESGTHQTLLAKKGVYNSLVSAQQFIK
Procedure: The fluorescent dye rhodamine B was used as an indicator of efflux transporter activity. […] Test solutions were prepared in FSW with 1 μM rhodamine B. Stocks of the test compounds dissolved in ethanol were added to FSW to the desired concentrations, and all solutions were adjusted to 1% ethanol along with an ethanol control. […] Incubations were performed in glass petri dishes (diameter, 5 cm) in a volume of 10 mL.
(§1) Gill tissue disks were incubated in test solutions with gentle rocking for 90 min at 15°C in the dark (n = 2–5 tissue disks per dish). After exposure, the tissue disks were briefly washed twice in FSW to remove external rhodamine B, frozen on dry ice or in liquid nitrogen, and stored at −20°C in the dark. […] The sonicates were then centrifuged at 13,000g for 5 min, and the supernatant was transferred to black 96-well microplates (Packard Instrument Co., Meriden, CT). The amount of dye in the supernatant was determined with a fluorescence microplate reader (Packard FluoroCount; […]). Rhodamine B extracts were kept dark and on ice at all times. At each reading, background fluorescence was determined with pure n-butanol and subtracted from each value.
(§2) Transport activities in treated gill disks were normalized relative to nontreated controls that were run for each individual. The ratios, which indicate relative increases in fluorescence, were used as a measure of inhibition by each compound at the specified concentrations. […] IC10 and IC50 values were determined by probit analysis using a macro program for Microsoft Excel written by J. Greve (Fraunhofer-Institut für Umweltchemie und Ökotoxikologie, Schmallenberg, Germany).

[2] = cited from earlier work
[3] = test system: efflux transporters in mussel gills (MXR transporters); experiment: Long-term inhibition: transporter activity assay after 2 hr exposure and 0, 24, 48 hr washing in FSW; type: cell-based, Mytilus californianus; settings: 1 μM test compound 2 hr
Procedure: as §1
(§3) To examine the duration of inhibitory effects after exposure to test compounds, six to nine gill tissue disks were incubated with 1 μM of test compounds for 2 hr. Transporter activity was then assayed in one-third of the disks immediately after exposure and in the others after 24 hr and 48 hr of washing in fresh FSW (50 mL). FSW was changed after 24 hr. During exposure and washing, dishes were gently rocked at 15°C in the dark. The transporter activity assay was performed with 1 μM rhodamine B as described above.
as §2

[4] = design: method as in Käfferlein et al. 1998; settings: ref Käfferlein et al. 1998, cited from earlier work
[5] = target: T1, efflux transporters in mussel gills (MXR transporters); experiment: Long-term inhibition: transporter activity assay after 2 hr exposure and 0, 24, 48 hr washing in FSW; type: cell-based; settings: 1 μM test compound 2 hr
Procedure: as §1, §3, §2

[6] = after 24 hr of washing, paired t-test p < 0.05

Structure (SMILES) | IC10 [1] | Log Kow ([2]; ref Balk et al. (2001)) | continuing inhibition of transporter activity, treatment versus control (in words) [3, 6] | continuing inhibition of transporter activity, treatment versus control (in words) ([3]; after 48 hr of washing) | Concentrations found in blood plasma ([4]; human blood plasma) | Concentrations found in body fat and breast milk ([4]; human body fat and breast milk) | continuing inhibition of transporter activity, treatment versus control (in words) [5, 6] | continuing inhibition of transporter activity, treatment versus control (in words) ([5]; after 48 hr of washing) | Log Kow ([2]; ref Liu (2004))
CC(=O)c1cc(C(C)(C)C)cc2c1CCC2(C)C [ADBI, 4-Acetyl-1,1-dimethyl-6-tert-butylindane] | 390 ± 340 nM | 5.9^a | clear trends of increased rhodamine levels | trend of reduced activity |  |  |  |  | 
CC(=O)c1cc2c(cc1C)C(C)(C)C(C)C2C(C)C (centres unmarked) [ATII, 5-Acetyl-1,1,2,6-tetramethyl-3-isopropylindane] | 320 ± 40 nM | 6.3^a | significant | complete recovery |  |  |  |  | 
CC1COCc2cc3c(cc21)C(C)(C)C(C)C3(C)C (centres unmarked) [HHCB, 1,3,4,6,7,8-Hexahydro-4,6,6,7,8,8-hexamethyl-cyclopenta-γ-[2]-benzopyran] | 370 ± 160 nM | 5.9^a | significant | trend of reduced activity |  |  |  |  | 
CC(=O)c1c(C)c([N+](=O)[O-])c(C(C)(C)C)c([N+](=O)[O-])c1C [MK, 1-tert-Butyl-3,5-dimethyl-2,6-dinitro-4-acetylbenzene] | 90 ± 120 nM | 4.3^a | clear trends of increased rhodamine levels | trend of reduced activity |  |  |  |  | 
Cc1c([N+](=O)[O-])c(C)c([N+](=O)[O-])c(C(C)(C)C)c1[N+](=O)[O-] [MX, 1-tert-Butyl-3,5-dimethyl-2,4,6-trinitrobenzene] | 140 ± 120 nM | 4.9^a |  |  | nanomolar range | 0.2 to 0.3 µmol/kg | significant | trend of reduced activity | 
CCN(CC)c1ccc2c(-c3ccccc3C(=O)O)c3ccc(=[N+](CC)CC)cc-3oc2c1 [Rhodamine B, reference compound] |  |  |  |  |  |  |  |  | 1.5^c
